One data set has as its target T1, apTKRPR-B (Aplysia californica, UniProt A0AAU7STS1).
T1 sequence (A0AAU7STS1 1-447): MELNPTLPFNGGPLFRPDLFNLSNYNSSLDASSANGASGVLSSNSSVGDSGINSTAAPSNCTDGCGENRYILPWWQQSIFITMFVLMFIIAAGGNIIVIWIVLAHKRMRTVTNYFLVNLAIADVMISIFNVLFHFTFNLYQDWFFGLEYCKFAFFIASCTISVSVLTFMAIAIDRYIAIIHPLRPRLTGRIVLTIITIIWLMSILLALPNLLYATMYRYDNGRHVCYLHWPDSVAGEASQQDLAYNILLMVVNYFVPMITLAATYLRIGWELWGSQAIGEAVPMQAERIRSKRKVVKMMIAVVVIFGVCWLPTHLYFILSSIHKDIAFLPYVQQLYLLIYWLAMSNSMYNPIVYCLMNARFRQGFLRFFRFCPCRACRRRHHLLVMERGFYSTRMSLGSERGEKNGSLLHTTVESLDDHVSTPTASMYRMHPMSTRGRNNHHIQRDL
Nature of the data set: IP1 accumulation assay, CHO-K1 cells transiently expressing apTKRPR-B. The format is cell-based. Here is the method:
(§1) To express putative Aplysia receptors transiently in CHO-K1 cells, the cDNAs were subcloned into the pcDNA3.1(+) or pcDNA3.1(+)-FLAG (for ELISA experiments only, see “Cell surface expression analysis by ELISA” section) expression vector. On the day before transfection, the CHO-K1 cells were passaged into 60 mm diameter tissue culture–treated dishes, and the transfection experiments were performed when the cells were grown to 70 to 90% confluence. CHO-K1 cells were transfected with the cDNA plasmid constructs using Turbofect Transfection reagent (Thermo Fisher Scientific, R0531), following the manufacturer’s instructions. […] The DNA/TurboFect mixture dropwise was then added to the dish, and the cells were incubated at 37 °C in a humidified incubator containing 5% CO2 overnight.
(§2) On the third day, the activation of the putative receptors was detected by monitoring intracellular IP1 concentration using an IP-One Gq kit (Cisbio, 62IPAPEB) in Tecan Spark. Except for using 0.5x reagent, all other procedures were performed following the manufacturer’s instructions. IP1 accumulation assay measures the accumulation of IP1, which is hydrolyzed from the second messenger, and inositol triphosphate. Inositol triphosphate is generated by the Gαq pathway when a GPCR is activated by an appropriate ligand.

The target of another data set is T2, apTKRPR-A (Aplysia californica, UniProt A0AAU7SSZ1).
T2 sequence (A0AAU7SSZ1 1-398): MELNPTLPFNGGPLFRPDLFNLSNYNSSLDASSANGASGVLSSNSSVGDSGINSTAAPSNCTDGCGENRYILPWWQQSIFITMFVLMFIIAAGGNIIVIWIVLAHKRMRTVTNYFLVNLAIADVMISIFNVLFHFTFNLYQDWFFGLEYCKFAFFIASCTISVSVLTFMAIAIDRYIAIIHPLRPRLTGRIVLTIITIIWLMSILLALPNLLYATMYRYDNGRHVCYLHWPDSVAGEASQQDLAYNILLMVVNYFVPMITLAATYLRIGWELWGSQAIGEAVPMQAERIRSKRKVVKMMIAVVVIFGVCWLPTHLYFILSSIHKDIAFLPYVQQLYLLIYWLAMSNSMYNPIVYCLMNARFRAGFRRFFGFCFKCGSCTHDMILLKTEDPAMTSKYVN
The experiment in a line: IP1 accumulation assay, CHO-K1 cells transiently expressing apTKRPR-A. The format is cell-based. As for the experimental part: as §1, §2

For data set [1] the following is noted: trifluoroacetate counter ion, ref ChinaPeptides Co., Ltd. certificate of analysis (Fig. S21), cited from earlier work.
Data set [2] addresses Aplysia tachykinin-related peptide receptor A (apTKRPR-A) (Aplysia californica).
The target in data set [3] is Aplysia tachykinin-related peptide receptor B (apTKRPR-B) (Aplysia californica).
The mark [4] stands for this setting: log10 of EC50 in M, negative, IP1 accumulation, CHO-K1, mean ± SD of at least three independent experiments (apTKRP-1 n = 9; apTKRP-2a n = 11; apTKRP-2b n = 19; analogs, apTKRP-2b-OH n = 4), read-out: apTKRPR-B log[EC50] (converted).
Setting [5] is: log10 of EC50 in M, negative, IP1 accumulation, CHO-K1, mean ± SD of at least three independent experiments (apTKRP-1 n = 9; apTKRP-2a n = 11; apTKRP-2b n = 19; analogs, apTKRP-2b-OH n = 4), read-out: apTKRPR-A log[EC50] (converted).

≈ marks a conversion by molar mass, not a printed value. Read-outs that look alike come from different tables or passages of the source. Non-standard residues stand in square brackets, D forms with d. Residues, ends and D or L forms follow the SMILES beside them. No end group written: not given here. pGlu = O=C1CC[C@@H](C(=O)O)N1

In the case of FKPSGFMGSR-NH2 [apTKRP-1], the figures for the EC50 on apTKRPR-B (setting [4]) and at apTKRPR-A (setting [5]) were 24.5 nM and 145 nM, respectively.

Turning to `CC(C)C[C@H](NC(=O)[C@H](C)NC(=O)[C@@H]1CCCN1C(=O)[C@@H]1CCC(=O)N1)C(=O)NCC(=O)N[C@@H](Cc1ccccc1)C(=O)N[C@@H](Cc1c[nH]cn1)C(=O)NCC(=O)N[C@@H](CO)C(=O)N[C@@H](CCCNC(=N)N)C(N)=O` [[Ala^3]apTKRP-2b] ([pGlu]PALGFHGSR-NH2), in data set [1] (in 15%ACN/85%H2O), the Solubility was 1000 µg/mL (≈ 951 µM). Further, the EC50 at apTKRPR-B was 32.4 nM; at apTKRPR-A, 295 nM.

As to `CC(C)C[C@H](NC(=O)[C@H](Cc1c[nH]cn1)NC(=O)[C@@H]1CCCN1C(=O)[C@@H]1CCC(=O)N1)C(=O)NCC(=O)N[C@@H](C)C(=O)N[C@@H](Cc1c[nH]cn1)C(=O)NCC(=O)N[C@@H](CO)C(=O)N[C@@H](CCCNC(=N)N)C(N)=O` [[Ala^6]apTKRP-2b] ([pGlu]PHLGAHGSR-NH2), the Solubility in data set [1] (in 13%ACN/87%H2O) was 1000 µg/mL (≈ 960 µM). For the same molecule, the values for the EC50 on apTKRPR-B and on apTKRPR-A were 537 nM and 1510 nM, respectively.

For the molecule `CC(C)C[C@H](NC(=O)[C@H](Cc1c[nH]cn1)NC(=O)[C@H](C)NC(=O)[C@@H]1CCC(=O)N1)C(=O)NCC(=O)N[C@@H](Cc1ccccc1)C(=O)N[C@@H](Cc1c[nH]cn1)C(=O)NCC(=O)N[C@@H](CO)C(=O)N[C@@H](CCCNC(=N)N)C(N)=O` [[Ala^2]apTKRP-2b] ([pGlu]AHLGFHGSR-NH2), in data set [1] (in 15%ACN/85%H2O), the Solubility was 1000 µg/mL (≈ 916 µM). Also, the results for the EC50 on apTKRPR-B and at apTKRPR-A were 33.1 nM and 309 nM, respectively.

Regarding `CC(C)C[C@H](NC(=O)[C@H](Cc1c[nH]cn1)NC(=O)[C@@H]1CCCN1C(=O)[C@@H]1CCC(=O)N1)C(=O)NCC(=O)N[C@@H](Cc1ccccc1)C(=O)N[C@@H](Cc1c[nH]cn1)C(=O)NCC(=O)N[C@@H](C)C(=O)N[C@@H](CCCNC(=N)N)C(N)=O` [[Ala^9]apTKRP-2b] ([pGlu]PHLGFHGAR-NH2), the Solubility in data set [1] (in 15%ACN/85%H2O) is 1000 µg/mL (≈ 908 µM). Moreover, the EC50 on apTKRPR-B was 17.4 nM; at apTKRPR-A, 195 nM.

`CC(C)C[C@H](NC(=O)[C@H](Cc1c[nH]cn1)NC(=O)[C@@H]1CCCN1C(=O)[C@@H]1CCC(=O)N1)C(=O)NCC(=O)N[C@@H](Cc1ccccc1)C(=O)N[C@@H](Cc1c[nH]cn1)C(=O)NCC(=O)N[C@@H](CO)C(=O)N[C@@H](CCCNC(=N)N)C(=O)O` [apTKRP-2b-OH] ([pGlu]PHLGFHGSR-OH): the EC50 was above 10000 nM at apTKRPR-B (IP1 accumulation, CHO-K1, from average log[EC50], read-out: apTKRPR-B [EC50]); above 10000 nM at apTKRPR-B (setting [4]); above 10000 nM at apTKRPR-A (IP1 accumulation, CHO-K1, from average log[EC50], read-out: apTKRPR-A [EC50]); above 10000 nM on apTKRPR-A (setting [5]).

On to `CC(C)C[C@H](NC(=O)[C@H](Cc1c[nH]cn1)NC(=O)[C@@H]1CCCN1C(=O)[C@@H]1CCC(=O)N1)C(=O)N[C@@H](C)C(=O)N[C@@H](Cc1ccccc1)C(=O)N[C@@H](Cc1c[nH]cn1)C(=O)NCC(=O)N[C@@H](CO)C(=O)N[C@@H](CCCNC(=N)N)C(N)=O` [[Ala^5]apTKRP-2b] ([pGlu]PHLAFHGSR-NH2), for which the Solubility in data set [1] (in 15%ACN/85%H2O) was 1000 µg/mL (≈ 884 µM). For the same molecule, the EC50 is 537 nM on apTKRPR-B and 1660 nM at apTKRPR-A.

In the case of `CC(C)C[C@H](NC(=O)[C@H](Cc1c[nH]cn1)NC(=O)[C@@H]1CCCN1C(=O)[C@@H]1CCC(=O)N1)C(=O)NCC(=O)N[C@@H](Cc1ccccc1)C(=O)N[C@@H](Cc1c[nH]cn1)C(=O)NCC(=O)N[C@@H](CO)C(=O)N[C@@H](C)C(N)=O` [[Ala^10]apTKRP-2b] ([pGlu]PHLGFHGSA-NH2), the Solubility in data set [1] (in 15%ACN/85%H2O) was 1000 µg/mL (≈ 969 µM). The EC50 at apTKRPR-B and on apTKRPR-A was above 10000 nM each time.

Turning to `CC(C)C[C@H](NC(=O)[C@H](Cc1c[nH]cn1)NC(=O)[C@@H]1CCCN1C(=O)[C@@H]1CCC(=O)N1)C(=O)NCC(=O)N[C@@H](Cc1ccccc1)C(=O)N[C@@H](Cc1c[nH]cn1)C(=O)N[C@@H](C)C(=O)N[C@@H](CO)C(=O)N[C@@H](CCCNC(=N)N)C(N)=O` [[Ala^8]apTKRP-2b] ([pGlu]PHLGFHASR-NH2), the Solubility in data set [1] (in 15%ACN/85%H2O) was 1000 µg/mL (≈ 884 µM). Besides, the EC50 was 3.09 nM at apTKRPR-B and 20.9 nM on apTKRPR-A.

With `CC(C)C[C@H](NC(=O)[C@H](Cc1c[nH]cn1)NC(=O)[C@@H]1CCCN1C(=O)[C@@H]1CCC(=O)N1)C(=O)NCC(=O)N[C@@H](Cc1ccccc1)C(=O)N[C@@H](C)C(=O)NCC(=O)N[C@@H](CO)C(=O)N[C@@H](CCCNC(=N)N)C(N)=O` [[Ala^7]apTKRP-2b] ([pGlu]PHLGFAGSR-NH2), the Solubility in data set [1] (in 15%ACN/85%H2O) was 1000 µg/mL (≈ 951 µM). At apTKRPR-A, this molecule had an EC50 of 1070 nM.

Regarding `C[C@H](NC(=O)[C@H](Cc1c[nH]cn1)NC(=O)[C@@H]1CCCN1C(=O)[C@@H]1CCC(=O)N1)C(=O)NCC(=O)N[C@@H](Cc1ccccc1)C(=O)N[C@@H](Cc1c[nH]cn1)C(=O)NCC(=O)N[C@@H](CO)C(=O)N[C@@H](CCCNC(=N)N)C(N)=O` [[Ala^4]apTKRP-2b] ([pGlu]PHAGFHGSR-NH2), the Solubility in data set [1] (in 13%ACN/87%H2O) is 1000 µg/mL (≈ 930 µM). The concentration giving a half-maximal response (EC50) was 1.7 nM on apTKRPR-B and 9.77 nM at apTKRPR-A.

B1: apTKRP-2b analog with Lys instead of Gly at position eight (peptide)
peptide: [pGlu]PHLGFHKSR-NH2
SMILES: CC(C)C[C@H](NC(=O)[C@H](Cc1c[nH]cn1)NC(=O)[C@@H]1CCCN1C(=O)[C@@H]1CCC(=O)N1)C(=O)NCC(=O)N[C@@H](Cc1ccccc1)C(=O)N[C@@H](Cc1c[nH]cn1)C(=O)N[C@@H](CCCCN)C(=O)N[C@@H](CO)C(=O)N[C@@H](CCCNC(=N)N)C(N)=O
Take B1: the EC50 of IP1 accumulation in CHO-K1 cells expressing the receptor in data set [2] and in data set [3] was above 10000 nM in each case.

B2: apTKRP-2b analog with Leu instead of Gly at position eight (peptide)
peptide: [pGlu]PHLGFHLSR-NH2
SMILES: CC(C)C[C@H](NC(=O)[C@H](Cc1c[nH]cn1)NC(=O)[C@@H]1CCCN1C(=O)[C@@H]1CCC(=O)N1)C(=O)NCC(=O)N[C@@H](Cc1ccccc1)C(=O)N[C@@H](Cc1c[nH]cn1)C(=O)N[C@@H](CC(C)C)C(=O)N[C@@H](CO)C(=O)N[C@@H](CCCNC(=N)N)C(N)=O
As for B2, the EC50 of IP1 accumulation in CHO-K1 cells expressing the receptor in data set [2] and in data set [3] was above 10000 nM in each case.

B3: apTKRP-2b analog with Asp instead of Gly at position eight (peptide)
peptide: [pGlu]PHLGFHDSR-NH2
SMILES: CC(C)C[C@H](NC(=O)[C@H](Cc1c[nH]cn1)NC(=O)[C@@H]1CCCN1C(=O)[C@@H]1CCC(=O)N1)C(=O)NCC(=O)N[C@@H](Cc1ccccc1)C(=O)N[C@@H](Cc1c[nH]cn1)C(=O)N[C@@H](CC(=O)O)C(=O)N[C@@H](CO)C(=O)N[C@@H](CCCNC(=N)N)C(N)=O
Regarding B3, the EC50 of IP1 accumulation in CHO-K1 cells expressing the receptor in data set [2] and in data set [3] was above 10000 nM throughout.

Broadly, the EC50 is the midpoint of the concentration-response curve. One may read the Solubility as how much of the substance goes into solution per volume.

The values above are taken from publication PMC11365428 (The Journal of Biological Chemistry, 2024).
